Results as given in paper PMC7022278, “Alpha-Amylase and Alpha-Glucosidase Enzyme Inhibition and Antioxidant Potential of 3-Oxolupenal and Katononic Acid Isolated from Nuxia oppositifolia” (Biomolecules, 2019).
pIC50: −log10 of the molar value. Values joined by “and” are separate entries in the source; they are usually repeats but may differ in a detail not shown here. Identical values can stand only once.

Columns and labels:
[1] = target: T1, Porcine α-amylase (pancreatic α-amylase) (Sus scrofa, UniProt P00690); test: Inhibition assay for amylase activity (starch/DNS); format: biochemical
T1 construct: purchased Sigma-Aldrich Co., St Louis, MO, USA
T1 sequence (P00690 16-511): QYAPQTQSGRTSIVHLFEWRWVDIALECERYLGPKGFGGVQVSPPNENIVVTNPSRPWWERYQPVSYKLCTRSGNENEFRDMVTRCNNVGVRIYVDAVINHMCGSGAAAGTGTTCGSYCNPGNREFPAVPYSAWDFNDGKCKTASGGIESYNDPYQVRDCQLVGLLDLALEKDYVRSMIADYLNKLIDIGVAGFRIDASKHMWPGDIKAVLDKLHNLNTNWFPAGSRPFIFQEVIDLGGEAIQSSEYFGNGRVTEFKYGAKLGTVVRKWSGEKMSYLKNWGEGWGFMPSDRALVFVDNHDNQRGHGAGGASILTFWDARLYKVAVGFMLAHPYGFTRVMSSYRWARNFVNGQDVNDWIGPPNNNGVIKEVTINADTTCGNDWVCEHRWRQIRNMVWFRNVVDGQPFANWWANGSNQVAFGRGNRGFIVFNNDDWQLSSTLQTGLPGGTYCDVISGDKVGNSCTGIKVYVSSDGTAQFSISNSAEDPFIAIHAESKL
Experimental: The different fractions of the plant and compounds were prepared using 5% dimethyl sulfoxide (DMSO). Fraction/compound (500 µL) of 100 µg/mL concentration (i.e., 50 µg) and 500 µL of 20 mM sodium phosphate buffer (pH 6.8) containing 20 µL of amylase (0.5 mg/mL) were incubated at 25 °C for 10 min. After pre-incubation, 500 µL of 1% starch solution in 0.02 M sodium phosphate buffer (pH 6.9) were added to each tube and incubated for 15 min. The reaction was stopped with 1.0 mL of dinitrosalicyclic acid. The test tubes were then incubated in a boiling water bath for 5 min and cooled to room temperature. The reaction mixture was then diluted after adding 10 mL distilled water, and the absorbance (Abs) was measured at 540 nm. Mean values were obtained from triplicate experiments. The control samples were prepared without any plant extracts/fractions/compounds. The percent inhibition of amylase activity was calculated using the following formula:(1) Inhibition(%)=(AbsControl−AbsCompound/AbsControl)×100 The mean values were obtained from triplicate experiments.

α-glucosidase [2] = test: Inhibition assay for glucosidase activity (pNPG); format: biochemical; settings: for Inhibition of α-Glucosidase (IC50 value): means of three experiments ± SD; for pIC50: molar value in brackets
Experimental: Glucosidase inhibition assay was carried out by following the method of Elya et al. (2008). The different fractions of the plant and compounds were prepared using 5% dimethyl sulfoxide (DMSO). […] Next, 50 μL of 5 mM p-nitrophenyl-α-D-glucopyranoside (pNPG) were added to the mixture to start the reaction. The reaction mixture was incubated at 37 °C for 60 min and stopped by adding 2.5 mL of 0.1 M Na2CO3. […] The mean values were obtained from triplicate experiments. The inhibition of glucosidase activity was calculated as percentage inhibition using Equation (1).

[3] = DPPH radical scavenging activity; settings: for DPPH Scavenging Activity (IC50 value): means of three experiments ± SD; for pIC50: molar value in brackets
Experimental: The DPPH radical scavenging method measured the antioxidant activity following the method of Braca et al. (2001) with slight modification. The crude extract, fractions, and compounds at 100 µg/mL concentrations were added to 3 mL of 0.004% DPPH solution. In the control sample, methanol was added in place of test extract/fractions/compounds. The DPPH is violet in color at room temperature and the color changes to yellow by either the process of hydrogen or electron donation by antioxidants. Absorbance was measured at 520 nm after 30 min incubation. The percent inhibition was calculated using Equation (1).

[4] = ABTS radical cation scavenging activity; settings: for ABTS Scavenging Activity (IC50 value): means of three experiments ± SD; for pIC50: molar value in brackets
Experimental: The ABTS radical scavenging activity of the samples was measured using the method of Re et al. (1999) with slight modification. ABTS solution in water (7 mM concentration) and an aqueous solution of potassium persulfate (2.45 mM) were prepared. The two solutions were mixed in the volume ratio 1:1 and stored in the dark 6 h at room temperature to produce the ABTS radical. The blue chromophore, which has a characteristic absorbance at 734 nm, was generated by reacting equal amount of ABTS and potassium persulfate solution. The ABTS stock solution was diluted with ethanol to an absorbance of 0.70 ± 0.02 at 734 nm and equilibrated at 30 °C. The crude extract, different fractions and isolated compounds at 100 µg/mL concentrations were mixed with 2.9 mL of diluted ABTS radical cation solution. The reaction was incubated at 30 °C for 20 min, and the absorbance at 734 nm was measured. The affinity of the test sample to quench the ABTS free radical was evaluated using Equation (1).

α-amylase = target: T2, α-amylase (Sus scrofa, UniProt P00690); test: Fluorescence quenching-based binding study, α-amylase; settings: 298 K; for Number of Binding Sites n: pH 6.8
T2 construct: purchased Sigma-Aldrich Co., St Louis, MO, USA
T2 sequence (P00690 16-511): T1 sequence (P00690 16-511)
Experimental: (§1) Proteins were excited at 295 nm and the fluorescence spectra were recorded in the 300–450 nm range. The excitation and emission slit widths were set at 5 nm each. The concentration of proteins was fixed at 2 µM while the concentration of quenchers was varied. The inner filter effect contributed by quenchers was corrected using the following relation. (2) Fcorr=Fobs×e^(Aex+Aem)/2 where Fcorr is the corrected fluorescence intensity, Fobs is the observed fluorescence intensity, Aex is the absorbance at the excitation wavelength, and Aem is the absorbance at the emission wavelength.
(§2) Observing quenching in the fluorescence intensity of a protein in the presence of a ligand is a powerful tool in determining the binding parameters such as binding affinity and Gibb’s free energy of stabilization. Here, we have followed quenching in the fluorescence intensity of α-amylase and α-glucosidase in the presence of 3-oxolupenal and katononic acid at 298 K (Figure 4 and Figure 5). […] The binding parameters for the interaction were deduced using the following Stern–Volmer and modified Stern–Volmer equations. (3) Fo/F=1+KSV[Q]=1+kqτo[Q] (4) log(Fo−F/F)=logKa+nlog[Q] where, Fo and F are the fluorescence intensities of enzymes (α-amylase and α-glucosidase) in the absence and presence of ligands (3-oxolupenal and katononic acid); KSV is the Stern–Volmer constant; [Q] is the molar concentration of ligands (3-oxolupenal and katononic acid); kq is the bimolecular quenching rate constant; τo is the lifetime of enzymes’ fluorescence in the absence of ligands (=5.71 × 10^−9 s); Ka is the binding constant; n is the number of binding sites on the enzyme.

α-glucosidase [5] = test: Fluorescence quenching-based binding study, α-glucosidase; settings: 298 K
Experimental: as §1, §2

[6] = means of three experiments ± SD
[7] = pH 6.8, listed as Katononic Acid
[8] = pH 6.8, listed as katononic acid

SMILES | pIC50 [1, 6] | pIC50 ([1]; molar value in brackets) | Inhibition of α-Glucosidase (IC50 value) (α-glucosidase [2]) | pIC50 (α-glucosidase [2]) | DPPH Scavenging Activity (IC50 value) [3] | pIC50 [3] | ABTS Scavenging Activity (IC50 value) [4] | pIC50 [4] | Number of Binding Sites n (α-amylase) | Bimolecular Quenching Rate Constant (kq) (α-glucosidase [5]; [7]) | Stern–Volmer Constant (KSV) (α-glucosidase [5]; [7]) | Bimolecular Quenching Rate Constant (kq) (α-glucosidase [5]; [8]) | Stern–Volmer Constant (KSV) (α-glucosidase [5]; [8]) | Bimolecular Quenching Rate Constant (kq) (α-amylase; [7]) | Stern–Volmer Constant (KSV) (α-amylase; [7]) | Bimolecular Quenching Rate Constant (kq) (α-amylase; [8]) | Stern–Volmer Constant (KSV) (α-amylase; [8])
C=C(C=O)[C@@H]1CC[C@]2(C)CC[C@]3(C)[C@H](CC[C@@H]4[C@@]5(C)CCC(=O)C(C)(C)[C@@H]5CC[C@]43C)[C@@H]12 [3-oxolupenal] | 3.98 | 3.99 and 3.98 | 62.3 ± 2.4 µg/mL | 3.85 | 82.7 ± 6.7 µg/mL | 3.72 | 84.2 ± 5.1 µg/mL | 3.72 | 1.0865 | – | – | – | – | – | – | – | –
Cc1cc(C(C)(C)C)c(O)c(C(C)(C)C)c1 [BHT, butylated hydroxytoluene, reference compound] | – | – | – | – | 16.6 ± 6.2 µg/mL | 4.12 | 28.0 ± 1.9 µg/mL | 3.90 | – | – | – | – | – | – | – | – | –
CC1(C)C(=O)CC[C@]2(C)[C@H]3CC=C4[C@@H]5C[C@](C)(C(=O)O)CC[C@]5(C)CC[C@@]4(C)[C@]3(C)CC[C@@H]12 [Katononic acid, katononic acid] | 3.94 | 3.92 and 3.94 | 88.6 ± 6.2 µg/mL | 3.71 | 87.5 ± 5.4 µg/mL | 3.72 | 82.7 ± 4.7 µg/mL | 3.74 | 0.7646 | 3.59e+13 M⁻¹ s⁻¹ | 205000 M⁻¹ | ~10^13 M^−1 s^−1 | ~10^5 M^−1 | 2.77e+13 M⁻¹ s⁻¹ | 158000 M⁻¹ | ~10^13 M^−1 s^−1 | ~10^5 M^−1
